Values quoted from earlier work in patent US12102751B2, “Positive pressure inhaler for delivery of inhalable medication and methods for use” (priority 2019, dated 2024).

Legend:
[1] = after vaping

| SMILES | solubility in most organic solvents (most organic solvents, specifically lipids and alcohols) | solubility in water (water) | time after which plasma concentration falls [1] | time at which plasma concentration reaches maximum strength [1] |
| --- | --- | --- | --- | --- |
| CCCCCc1cc(O)c2c(c1)OC(C)(C)[C@@H]1CCC(C)=C[C@@H]21 [THC, tetrahydrocannabinol] | good | very low | 22 min | 6 min |
| C=C(C)[C@@H]1CCC(C)=C[C@H]1c1c(O)cc(CCCCC)cc1O [CBD, Cannabidiol] | – | – | 22 min | 6 min |
